Results: EP0292365A2, “4-Amino-5,8-quinazolindione derivatives, process for their preparation and pharmaceutical compositions containing them” (CENTRE NATIONAL DE LA RECHERCHE SCIENTIFIQUE, priority 1987, dated 1988)
Where two headings read alike, the source gives them in different places.

What was measured:
Leucémie L1210 = format: in vivo, souris DBA/2; settings: for survivants 30 jours / Δ P J1-J5 / T/C / Doses actives (T/C ≥ 125 %): L1210, greffe ip(10^5cel.); for T/C: survivants inclus
Source text: Afin de tester l'activité antitumorale des composés décrits plus haut, on a utilisé les leucémies murines P388 et L1210, ainsi que le mélanome murin B16. La leucémie P388 est considère comme très sensible et permet une première sélection. D'autre part, une substance ayant une grande activité sur la leucémie L1210 a une grande chance d'être active en clinique humaine (J.M. Venditti; Relevance of transplantable animal tumor systems to the Selection of new agents for clinical trial in pharmacological basis of cancer chemotherapy. The University of Texas ed. Williams and Wilkins, publ. 1975, Baltimore USA).
La leucémie L1210 de la souris est en effet couramment utilisée pour l'évaluation de tous les composés antitumoraux actuellement mis en oeuvre en thérapeutique humaine, ainsi qu'il est décrit, par exemple par C.C. Zubrod dans Proc. Nat. Acad. Sci. USA 69, 1972, p. 1042-1047. Le système tumoral ainsi constitué expérimentalement permet une évaluation quantitative très précise de l'activité du composé testé, et, par conséquent aussi, une comparaison objective entre les activités respectives de différents composés, par exemple selon les méthodes décrites par R. E. Skipper, F. M. Schabel, Jr. et W. S. Wilcox dans Cancer Chemother. Rep., 35, 1964, p. 1-111 et 45, 1965, p.5-28.
Cette étude a été réalisée sur 1, 2 ou 3 tumeurs murines expérimentales selon le schéma suivant :
Les produits en solution dans l'eau ou en suspension dans du Klucel sont administrés par voie intrapéritonéale 24 heures après la greffe des cellules tumorales (10 animaux par série), soit en injection unique (J1), soit pendant 9 jours consécutifs (Ji-9). Les morts sont relevés chaque jour à la même heure. La comparaison du temps médian de survie des souris témoins (C) et des souris traitées (T) permet d'apprécier l'activité antitumorale du produit. On adopte comme critère d'activité minimale la valeur de T/C supérieure ou égale à 125 % conformément aux critères établis par GERAN et par l'O.M.S. (Réf. GERAN R.I., GREENBERG N.H., MACDONALD M.M., SCHUMACHER A.M. and ABBOTT B.J. Protocols for screening chemical agents and natural products against animal tumors and other biological systems. Cancer Chemother. Rep. Part 3, 3, 1-103 (1972)).
Lorsque le composé est actif sur plusieurs tumeurs, son administration par d'autres voies que la voie intrapéritonéale (i.p.) est envisagée : orale (p.o) et intraveineuse (i.v). Les résultats des essais effectués à l'aide du composé 63 sont rassemblés dans le tableau IV ci-après.
Dans les tableaux IV et IV Bis, P représentent la variation de poids entre J1 et J5 des animaux traités; lorsque P est supérieure à environ 4 g, cela signifie que la dose à laquelle le composé a été testé est toxique.

[1] = system: cellules leucémiques L 1210; test: In vitro cytotoxicity: growth inhibition of L 1210 leukemia cells (Coulter count); format: cell-based, souris; settings: Mus musculus, L1210, 48 h, read-out: CI50 après 48 h de culture
Procedure: La détermination de la cytotoxicité in vitro sur les cellules leucémiques L 1210 est la méthode utilisée pour sélectionner les molécules potentiellement antitumorales. Le protocole mis en oeuvre est le suivant :
les cellules leucématiques L 1210 adaptées à la culture en suspension stationnaire sont entretenues dans du milieu RPMI 1640 (commercialisé par Seromed) additionné de 20 % de sérum de cheval décomplémenté, L-glutamine (2 mM), pénicilline (200 U/ml), streptomycine (50µg/ml) et cultivées à 37° C dans une atmosphère à 5 % de C02. Les cultures testées par la méthode de BARILE (BARILE M.F. Mycoplasmal contamination of cell culture, in Contamination in Tissue Culture, J. Fogh (ed.) Acad. Press, 132-156, 1973) sont exemptes de contaminations bactériennes et mycoplasmiques.
Pour les expérimentations, les cellules sont ensemencées à la concentration de 0,8.10^5 cellules/ml et cultivées par 2 ml dans des flacons de 15 ml. Les substances à étudier sont dissoutes dans du DMSO (1 % final) dont on a préalablement vérifié l'innocuité. Des quantités croissantes de produit à tester sont ajoutées au temps 0 et des numérations sont faites au compteur COULTER après 24 et 48 heures de culture. Des séries de contrôle sont effectuées avec des quantités de DMSO équivalentes à celles des séries traitées.
Le temps de doublement des cellules témoins est approximativement de 12 heures.
La cytotoxicité est déterminée d'après l'inhibition de croissance des cellules L 1210, calculée par rapport aux témoins correspondants selon la formule : [formula] • T = concentration de cellules non traitées, • t = concentration de cellules traitées.
La concentration de produit qui diminue la croissance cellulaire de 50 % (Clso) est calculée d'après la méthode des régressions linéaires en coordonnées log-probit.
Lorsque la Cl50 est voisine de la micromolarité (égale ou inférieure à 1 µM), il existe une présomption d'activité antitumorale et les essais in vivo indiqués ci-après sont effectués.
A titre d'exemple, la CI50 mesurée 48 heures après traitement des cellules par les composés de l'invention testés est la suivante : […]

[2] = ip J1-9, dose optimale 0,4 mg/kg/inj.
[3] = ip J1, dose optimale 2 mg/kg/inj.

CN(C)CCCNc1ncnc2c1C(=O)C(N1CC1)=C(N1CC1)C2=O [composé 63]
survivants 30 jours (Leucémie L1210; [2]): 1
Δ P J1-J5 (Leucémie L1210; [2]): -1,6 g
T/C (Leucémie L1210; [2]): 174%
survivants 30 jours (Leucémie L1210; [3]): 1
Δ P J1-J5 (Leucémie L1210; [3]): -2,8 g
T/C (Leucémie L1210; [3]): 160%
Doses actives (T/C ≥ 125 %) (Leucémie L1210; traitement ip J1): 0,25-2 mg/kg/inj.
Doses actives (T/C ≥ 125 %) (Leucémie L1210; traitement ip J1-9): 0,03-0,8 mg/kg/inj.
activité sur la leucémie L1210 (Leucémie L1210; summary): très efficace
IC50 [1]: 2.7 nM
